Source: EP0485111A2, “The use of lipoxygenase and cyclooxygenase inhibitors as synergistic agents” (ZENECA LIMITED, priority 1990, dated 1992)

Tested on: arachidonic acid induced inflammatory response
Assay: arachidonic acid induced mouse ear inflammatory oedema test (mouse ear inflammatory model), oral dosing
Format: in vivo
Details: for inhibition in vivo at 3 mg/kg / inhibition in vivo at 10 mg/kg / inhibition in vivo at 30 mg/kg / inhibition in vivo at 1 mg/kg: Mus musculus, po; for inhibition (anti-inflammatory effect of the CO inhibitors): CO inhibitor alone at 1-10 mg/kg orally
Experimental: According to the test method, groups of 10 mice (25-30 g each) were dosed orally with vehicle alone (a mixture of 0.5% hydroxypropylmethylcellulose, 0.1% polysorbate 80 and water), with the 5-LO inhibitor alone, with a CO-inhibitor alone, or with a combination of 5-LO and CO inhibitors. After a period of 1 hour arachidonic acid (1 mg in 10 microlitres of acetone) was applied topically to one ear of each mouse. After a further period of 1 hour the mice were killed and a disc-shaped portion (6 mm in diameter) was punched from each ear. Comparison of the weights of the ear-discs between the arachidonic acid treated and untreated ears allows the effect of each treatment to be determined. The effect of each test compound or combination of compounds is calculated as follows ('ear weight diff.' means the mean difference in the weights of the disc-shaped portions of ear punched from the arachidonic acid-treated ear compared to the untreated ear for each mouse):- [table]

[1] = summary of Examples 1 to 10, variable

## COC1(c2cc(F)cc(Sc3ccc(C(F)(F)c4ccc(F)cc4)cc3)c2)CCOCC1 [[5], 4-[5-fluoro-3-(4-(4-fluoro-alpha,alpha-difluorobenzyl)phenylthio)phenyl]-4-methoxytetrahydropyran]
Ex 15, [5] 3 mg/kg orally alone, asterisk (*): not statistically significant
  inhibition in vivo at 3 mg/kg: 11%
Ex 15, [5] 10 mg/kg orally alone, asterisk (*): not statistically significant
  inhibition in vivo at 10 mg/kg: 16%
Ex 15, [5] 30 mg/kg orally alone, asterisk (*): not statistically significant
  inhibition in vivo at 30 mg/kg: 17%

## COC1(c2cc(F)cc(Sc3ccc4c(c3)OCC(=O)N4C)c2)CCOCC1 [[2], 4-[5-fluoro-3-(4-methyl-3-oxo-2,3-dihydro-4H-1,4-benzoxazin-7-ylthio)phenyl]-4-methoxytetrahydropyran]
Ex 11, [2] 3 mg/kg orally alone
  inhibition in vivo at 3 mg/kg: 15%
Ex 11, [2] 10 mg/kg orally alone
  inhibition in vivo at 10 mg/kg: 22%
Ex 11, [2] 30 mg/kg orally alone
  inhibition in vivo at 30 mg/kg: 34%
Ex 12, [2] 30 mg/kg orally alone (I 0 mg/kg)
  inhibition in vivo at 30 mg/kg: 27%

## CC(C(=O)O)c1ccc(-c2ccccc2)c(F)c1 (stereo not shown) [F, flurbiprofen, reference compound]
Ex 6, F 3 mg/kg orally alone ([1] 0 mg/kg)
  inhibition in vivo at 3 mg/kg: 14.6%
Ex 7, F 3 mg/kg orally alone ([1] 0 mg/kg)
  inhibition in vivo at 3 mg/kg: 7.6%
[1]
  inhibition (anti-inflammatory effect of the CO inhibitors): 0 to 55%

## COC1(c2cc(F)cc(OCc3ccc4c(ccc(=O)n4C)c3)c2)CCOCC1 [[1], 6-[(3-fluoro-5-[4-methoxy-3,4,5,6-tetrahydro-2H-pyran-4-yl]phenoxy)methyl]-1-methyl-2-quinolone]
Ex 1, [1] 1 mg/kg orally alone
  inhibition in vivo at 1 mg/kg: 14.6%
Ex 1, [1] 3 mg/kg orally alone
  inhibition in vivo at 3 mg/kg: 19.1%
Ex 1, [1] 10 mg/kg orally alone
  inhibition in vivo at 10 mg/kg: 47.2%
Ex 2, [1] 3 mg/kg orally alone
  inhibition in vivo at 3 mg/kg: 9.5%
Ex 2, [1] 10 mg/kg orally alone
  inhibition in vivo at 10 mg/kg: 0.5%
Ex 3, [1] 3 mg/kg orally alone
  inhibition in vivo at 3 mg/kg: 0%
Ex 3, [1] 10 mg/kg orally alone
  inhibition in vivo at 10 mg/kg: 15.6%
Ex 4, [1] 10 mg/kg orally alone (I 0 mg/kg)
  inhibition in vivo at 10 mg/kg: 44.4%
Ex 5, [1] 10 mg/kg orally alone (I 0 mg/kg)
  inhibition in vivo at 10 mg/kg: 15.2%
Ex 6, [1] 1 mg/kg orally alone
  inhibition in vivo at 1 mg/kg: 16.7%
Ex 6, [1] 3 mg/kg orally alone
  inhibition in vivo at 3 mg/kg: 20.8%
Ex 6, [1] 10 mg/kg orally alone
  inhibition in vivo at 10 mg/kg: 15.6%
Ex 7, [1] 1 mg/kg orally alone
  inhibition in vivo at 1 mg/kg: 16.2%
Ex 7, [1] 3 mg/kg orally alone
  inhibition in vivo at 3 mg/kg: 13.3%
Ex 7, [1] 10 mg/kg orally alone
  inhibition in vivo at 10 mg/kg: 11.4%
Ex 8, [1] 10 mg/kg orally alone (D 0 mg/kg)
  inhibition in vivo at 10 mg/kg: 12.5%
Ex 9, [1] 10 mg/kg orally alone (D 0 mg/kg)
  inhibition in vivo at 10 mg/kg: 25.7%
Ex 10, [1] 10 mg/kg orally alone (D 0 mg/kg)
  inhibition in vivo at 10 mg/kg: 3.2%
Summary of Examples 1 to 10, 5-LO inhibitor alone at 1-10 mg/kg orally, variable
  inhibition (anti-inflammatory effect of the 5-LO inhibitor): 0 to 47%

## COC1(c2ccc(Sc3ccc4c(c3)CCC(=O)N4C)s2)CCOCC1 [[3], 4-methoxy-4-[5-(1-methyl-2-oxo-1,2,3,4-tetrahydroquinolin-6-ylthio)thien-2-yl]tetrahydropyran]
Ex 13, [3] 3 mg/kg orally alone, asterisk (*): not statistically significant
  inhibition in vivo at 3 mg/kg: 17%
Ex 13, [3] 10 mg/kg orally alone
  inhibition in vivo at 10 mg/kg: 15%
Ex 13, [3] 30 mg/kg orally alone, asterisk (*): not statistically significant
  inhibition in vivo at 30 mg/kg: 20%

## COc1ccc2c(c1)c(CC(=O)O)c(C)n2C(=O)c1ccc(Cl)cc1 [I, indomethacin, reference compound]
Ex 1, I 10 mg/kg orally alone ([1] 0 mg/kg)
  inhibition in vivo at 10 mg/kg: 16.9%
Ex 2, I 10 mg/kg orally alone ([1] 0 mg/kg)
  inhibition in vivo at 10 mg/kg: 27.4%
Ex 3, I 3 mg/kg orally alone ([1] 0 mg/kg)
  inhibition in vivo at 3 mg/kg: 12.8%
Ex 4, I 3 mg/kg orally alone
  inhibition in vivo at 3 mg/kg: 15.3%
Ex 4, I 10 mg/kg orally alone
  inhibition in vivo at 10 mg/kg: 55.3%
Ex 5, I 3 mg/kg orally alone
  inhibition in vivo at 3 mg/kg: 18.2%
Ex 5, I 10 mg/kg orally alone
  inhibition in vivo at 10 mg/kg: 55.6%
Ex 11, I 10 mg/kg orally alone ([2] 0 mg/kg)
  inhibition in vivo at 10 mg/kg: 30%
Ex 12, I 1 mg/kg orally alone
  inhibition in vivo at 1 mg/kg: 13%
Ex 12, I 3 mg/kg orally alone
  inhibition in vivo at 3 mg/kg: 27%
Ex 12, I 10 mg/kg orally alone
  inhibition in vivo at 10 mg/kg: 33%
Ex 13, I 10 mg/kg orally alone ([3] 0 mg/kg), asterisk (*): not statistically significant
  inhibition in vivo at 10 mg/kg: 10%
Ex 14, I 10 mg/kg orally alone ([4] 0 mg/kg), asterisk (*): not statistically significant
  inhibition in vivo at 10 mg/kg: -2.5%
Ex 15, I 10 mg/kg orally alone ([5] 0 mg/kg)
  inhibition in vivo at 10 mg/kg: 27%
[1]
  inhibition (anti-inflammatory effect of the CO inhibitors): 0 to 55%

## COC1(c2cc(F)cc(Sc3ccc4c(c3)CCC(=O)N4C)c2)CCOCC1 [[4], 4-[5-fluoro-3-(1-methyl-2-oxo-1,2,3,4-tetrahydroquinolin-6-ylthio)phenyl]-4-methoxytetrahydropyran]
Ex 14, [4] 3 mg/kg orally alone, asterisk (*): not statistically significant
  inhibition in vivo at 3 mg/kg: 5%
Ex 14, [4] 10 mg/kg orally alone
  inhibition in vivo at 10 mg/kg: 21%
Ex 14, [4] 30 mg/kg orally alone
  inhibition in vivo at 30 mg/kg: 22%

## O=C(O)Cc1ccccc1Nc1c(Cl)cccc1Cl [D, diclofenac, reference compound]
Ex 8, D 3 mg/kg orally alone
  inhibition in vivo at 3 mg/kg: 11.1%
Ex 8, D 30 mg/kg orally alone
  inhibition in vivo at 30 mg/kg: 11.4%
Ex 9, D 3 mg/kg orally alone
  inhibition in vivo at 3 mg/kg: 5.9%
Ex 9, D 10 mg/kg orally alone
  inhibition in vivo at 10 mg/kg: 4.9%
Ex 9, D 30 mg/kg orally alone
  inhibition in vivo at 30 mg/kg: 17.8%
Ex 10, D 10 mg/kg orally alone
  inhibition in vivo at 10 mg/kg: 7.4%
Ex 10, D 30 mg/kg orally alone
  inhibition in vivo at 30 mg/kg: 10.5%
[1]
  inhibition (anti-inflammatory effect of the CO inhibitors): 0 to 55%
